Reference: ChEMBL document CHEMBL1201862, “PubChem BioAssay data set” (2004)
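Growth conditions: 96-well plates. Treatment: test compound, 48 hours, 5 concentrations. Analysis: linear interpolation between bracketing concentrations; unreached endpoints set to highest concentration. GI50 = concentration required for 50% inhibition of growth.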 Active and inactive are the calls of the source. No stated cut-off is given here; in the data, active = GI50 up to about 1.1 µM and inactive = higher.

Key:
Assay in all cases: DTP human tumour cell line panel, 48 h
[1] = system: TK-10
[2] = system: COLO 205
[3] = system: PC-3
[4] = system: RXF 393
[5] = system: MDA-MB-231
[6] = system: RPMI-8226
[7] = system: SF-268
[8] = system: SW-620
[9] = system: SNB-75
[10] = system: NCI-H460
[11] = system: OVCAR-5
[12] = system: Malme-3M
[13] = system: NCI-H23
[14] = system: MDA-MB-435
[15] = system: K562
[16] = system: HT-29
[17] = system: MOLT-4
[18] = system: SN12C
[19] = system: LOX IMVI
[20] = system: DU-145

Measured: GI50

COc1ccc2nc3ccc(OC)cc3c([S+]([O-])Cc3ccc([N+](=O)[O-])cc3)c2c1 (stereo not given)
inactive: [1] 5.9 µM | [2] 2.92 µM | [3] 14.5 µM | [4] 5.04 µM | [5] 15.7 µM | [6] 2.61 µM | [7] 22.1 µM | [8] 2.18 µM | [9] 19.3 µM | [10] 23.3 µM | [11] 12.9 µM | [12] 2.37 µM | [13] 6.7 µM | [14] 8.07 µM | [15] 3.56 µM | [16] 2.58 µM | [17] 1.83 µM | [18] 3.65 µM | [19] 5.16 µM | [20] 2.58 µM

Sc1ncc2[nH]nnc2n1
inactive: [1] > 100 µM | [2] > 100 µM | [3] > 100 µM | [4] > 100 µM | [5] > 100 µM | [6] > 100 µM | [7] > 100 µM | [8] > 100 µM | [9] > 100 µM | [10] > 100 µM | [11] > 100 µM | [12] > 100 µM | [13] > 100 µM | [14] > 100 µM | [15] > 100 µM | [16] > 100 µM | [17] > 100 µM | [18] > 100 µM | [19] > 100 µM | [20] > 100 µM

Cc1ccccc1C(=O)N1CCc2c([nH]c3ccccc23)C1
inactive: [1] 28.2 µM | [2] 17.4 µM | [3] 14 µM | [4] 18.6 µM | [5] 12.7 µM | [6] 21.2 µM | [7] 35.6 µM | [8] 27.6 µM | [9] 20.6 µM | [10] 21.7 µM | [11] 19.5 µM | [12] 24.8 µM | [13] 21.4 µM | [14] 14.4 µM | [15] 21.4 µM | [16] 18.8 µM | [17] 27.4 µM | [18] 17.2 µM | [19] 21.9 µM | [20] 25.6 µM

COc1ccc(CCCCNCc2cccc(CNCCCCc3ccc(OC)cc3)c2)cc1
inactive: [1] 2.07 µM | [2] 2.18 µM | [3] 1.79 µM | [4] 1.64 µM | [5] 1.87 µM | [6] 2.67 µM | [7] 1.76 µM | [8] 2.23 µM | [9] 1.76 µM | [10] 2.39 µM | [11] 2.09 µM | [12] 2 µM | [13] 1.78 µM | [14] 1.79 µM | [15] 1.36 µM | [16] 1.82 µM | [17] 2.18 µM | [18] 2.04 µM | [19] 1.6 µM | [20] 1.88 µM

CC(=O)OCC1OC(n2ncc(=O)[nH]c2=O)C(OC(C)=O)C1OC(C)=O (stereo not given)
inactive: [1] > 100 µM | [2] 11.3 µM | [3] 68.9 µM | [4] > 100 µM | [5] > 10 µM | [6] > 100 µM | [7] 5.33 µM | [8] 1.4 µM | [9] 40.3 µM | [10] 1.17 µM | [11] > 100 µM | [12] > 100 µM | [13] 68.5 µM | [14] 32.4 µM | [16] 6.67 µM | [17] 1.32 µM | [18] 34.4 µM | [19] 6.3 µM | [20] 23 µM
active: [15] 0.832 µM

[O-][n+]1ccc(NO)c2ccccc21
inactive: [1] 2.02 µM | [2] 1.41 µM | [3] 1.51 µM | [5] 1.32 µM | [8] 1.56 µM | [11] 3.73 µM | [12] 6.5 µM | [13] 1.58 µM | [14] 4.6 µM | [15] 2 µM | [16] 1.19 µM | [18] 1.38 µM | [19] 1.45 µM | [20] 1.5 µM
active: [4] 0.592 µM | [6] 0.297 µM | [7] 0.565 µM | [9] 0.516 µM | [10] 0.295 µM | [17] 0.6 µM

O=C(O)CC1NC(/C(=C/c2ccccc2)NC(=O)c2ccccc2)OC1=O (stereo not given)
inactive: [1] > 100 µM | [2] 19.8 µM | [3] > 100 µM | [4] 34.5 µM | [5] 27.4 µM | [6] 20.2 µM | [7] 36.3 µM | [8] 19.5 µM | [9] 29 µM | [10] 22.2 µM | [11] 76 µM | [12] 36.9 µM | [13] 42.7 µM | [14] 24.6 µM | [15] 21.3 µM | [16] 29.8 µM | [17] 17.7 µM | [18] 43.3 µM | [19] 16.2 µM | [20] 52.4 µM

O/N=C(\CC(O)(C(F)(F)F)C(F)(F)F)c1cccs1
inactive: [1] > 10 µM | [2] > 10 µM | [3] > 10 µM | [4] > 10 µM | [5] > 10 µM | [6] > 10 µM | [7] > 10 µM | [8] > 10 µM | [9] 7.46 µM | [10] > 10 µM | [11] > 10 µM | [12] > 10 µM | [13] > 10 µM | [14] > 10 µM | [15] > 10 µM | [16] > 10 µM | [17] > 10 µM | [18] > 10 µM | [19] > 10 µM | [20] > 10 µM

COC(=O)c1cc2c(n1S(=O)(=O)c1ccc(C)cc1)C(=O)C(=O)c1[nH]cc(C(=O)OCc3ccccc3)c1-2
inactive: [10] 1.37 µM
active: [1] 0.716 µM | [2] 0.191 µM | [3] 0.264 µM | [4] 0.0973 µM | [5] 0.0274 µM | [6] 0.0883 µM | [7] 0.221 µM | [8] 0.0514 µM | [9] 0.147 µM | [11] 0.575 µM | [12] 0.0321 µM | [13] 0.0649 µM | [14] < 0.015 µM | [15] 0.0439 µM | [16] 0.273 µM | [17] 0.0647 µM | [18] 0.08 µM | [19] 0.0553 µM | [20] 0.138 µM
